Measured values taken from patent publication US6846823B2, “Method of treating lower urinary tract disorders” (Dynogen Pharmaceuticals, Inc., priority 2003, dated 2005).

Assays:
[1] = preclinical and clinical studies, cited from earlier work
[2] = target: T1, 5-HT3 receptor (Mus musculus, UniProt P23979); conditions: radioligand binding; read-out: Ki, affinity for the 5-HT3 receptor; cited from earlier work
T1 construct: host or cells: N1E-115 mouse neuroblastoma cells
T1 sequence (P23979 24-489): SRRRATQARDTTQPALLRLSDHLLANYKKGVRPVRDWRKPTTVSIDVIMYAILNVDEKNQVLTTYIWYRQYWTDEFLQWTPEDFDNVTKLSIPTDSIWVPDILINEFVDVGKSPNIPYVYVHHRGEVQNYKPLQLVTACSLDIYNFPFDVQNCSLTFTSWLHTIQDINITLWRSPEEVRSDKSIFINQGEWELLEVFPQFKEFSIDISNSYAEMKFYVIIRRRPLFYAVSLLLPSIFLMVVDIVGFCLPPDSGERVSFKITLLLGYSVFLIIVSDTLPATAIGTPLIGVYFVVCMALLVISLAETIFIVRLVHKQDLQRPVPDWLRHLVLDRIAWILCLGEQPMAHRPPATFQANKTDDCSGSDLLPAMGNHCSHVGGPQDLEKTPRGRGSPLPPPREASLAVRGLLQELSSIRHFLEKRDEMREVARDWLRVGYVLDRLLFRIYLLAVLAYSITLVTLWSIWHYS

[3] = tested on: muscarinic receptors; conditions: cited from earlier work
[4] = target: T2, Monoamine Oxidase-B (MAO-B) (Homo sapiens, UniProt P27338); conditions: cited from earlier work
T2 sequence (P27338 1-520): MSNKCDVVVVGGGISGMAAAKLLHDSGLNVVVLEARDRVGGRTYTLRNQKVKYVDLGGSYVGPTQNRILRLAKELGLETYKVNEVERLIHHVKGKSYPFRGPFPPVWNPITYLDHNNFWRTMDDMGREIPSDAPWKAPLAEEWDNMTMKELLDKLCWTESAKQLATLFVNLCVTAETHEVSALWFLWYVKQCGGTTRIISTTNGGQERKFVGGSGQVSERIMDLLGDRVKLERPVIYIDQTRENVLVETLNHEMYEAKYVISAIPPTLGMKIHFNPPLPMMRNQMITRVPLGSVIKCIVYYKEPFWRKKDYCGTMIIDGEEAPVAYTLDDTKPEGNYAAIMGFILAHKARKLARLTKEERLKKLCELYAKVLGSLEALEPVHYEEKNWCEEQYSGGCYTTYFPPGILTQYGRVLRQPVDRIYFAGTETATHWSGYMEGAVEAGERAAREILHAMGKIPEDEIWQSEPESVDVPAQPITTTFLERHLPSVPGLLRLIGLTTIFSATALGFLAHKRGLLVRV

[5] = tested on: α1, α2, β1, β2, 5-HT1, 5-HT1A, 5-HT1C, 5-HT2, 5-HT4, 5-HT6, 5-HT7, D1, D2, Muscarinic, M1, M2, M3, Nicotonic, H1, H2, GABA-A, GABA-B, BZP, Opiate …; conditions: all receptors of the panel other than 5-HT3; read-out: IC50, binding to the additional receptors tested; cited from earlier work
[6] = target: T3, Monoamine Oxidase-A (MAO-A) (Homo sapiens, UniProt P21397); conditions: cited from earlier work
T3 sequence (P21397 1-527): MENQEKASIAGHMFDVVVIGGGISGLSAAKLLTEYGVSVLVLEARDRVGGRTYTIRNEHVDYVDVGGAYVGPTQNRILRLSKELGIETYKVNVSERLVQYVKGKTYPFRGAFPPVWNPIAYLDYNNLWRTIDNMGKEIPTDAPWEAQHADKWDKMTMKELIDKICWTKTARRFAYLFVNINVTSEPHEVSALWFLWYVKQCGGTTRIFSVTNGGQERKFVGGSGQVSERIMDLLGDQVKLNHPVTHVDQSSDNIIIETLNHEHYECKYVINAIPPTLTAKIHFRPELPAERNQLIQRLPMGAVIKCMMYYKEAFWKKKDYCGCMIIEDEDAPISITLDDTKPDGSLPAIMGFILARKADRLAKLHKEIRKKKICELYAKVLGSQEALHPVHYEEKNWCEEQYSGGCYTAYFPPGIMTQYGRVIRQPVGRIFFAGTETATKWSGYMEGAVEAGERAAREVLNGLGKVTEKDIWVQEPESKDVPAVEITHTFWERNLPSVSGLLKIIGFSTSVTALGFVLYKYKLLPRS

[7] = tested on: bladder capacity during acetic acid irritation; assay: Dilute Acetic Acid Model-rats, filling cystometry; assay type: in vivo, rat; conditions: for bladder capacity vs AA/Veh 3: rats, intraduodenal
From the text: Female rats (250-275 g BW, n=8) were anesthetized with urethane (1.2 g/kg) and a saline-filled catheter (PE-50) was inserted into the proximal duodenum for intraduodenal drug administration. A flared-tipped PE-50 catheter was inserted into the bladder dome, via a midline lower abdominal incision, for bladder filling and pressure recording and secured by ligation. The abdominal cavity was moistened with saline and closed by covering with a thin plastic sheet in order to maintain access to the bladder for emptying purposes. Fine silver or stainless steel wire electrodes were inserted into the external urethral sphincter (EUS) percutaneously for electromyography (EMG). Animals were positioned on a heating pad which maintained body temperature at 37° C.
Saline and all subsequent infusates were continuously infused at a rate of about 0.055 ml/min via the bladder filling catheter for about 60 minutes to obtain a baseline of lower urinary tract activity (continuous cystometry; CMG). […] Bladder capacity (ml) was calculated as the flow rate of the bladder filling solution (ml/min) multiplied by the elapsed time between commencement of bladder filling and occurrence of bladder contraction (min).
Following the control period, a 0.25% acetic acid solution in saline (AA) was infused into the bladder to induce bladder irritation. […] Following injection of the third vehicle control, bladder capacity was again measured, as described above but using AA to fill the bladder. […] Bladder capacity was measured as described above using AA to fill the bladder, at 20 and 50 minutes following each subsequent drug treatment.
Bladder capacity was determined for each treatment regimen as described above (flow rate of the bladder filling solution (ml/min) multiplied by the elapsed time between commencement of bladder filling and occurrence of bladder contraction (min)) and converted to % Bladder Capacity normalized to the last vehicle measurement of the AA/Veh 3 treatment group. Data were then analyzed by non-parametric ANOVA for repeated measures (Friedman Test) with Dunn's Multiple Comparison test. […]

[8] = tested on: bladder capacity during acetic acid irritation; assay: Dilute Acetic Acid Model-Cats, cystometry; assay type: in vivo, cat
Procedure: Six alpha-chloralose anesthetized (50-100 mg/kg) normal female cats (2.5-3.5 kg; Harlan) were utilized in this study.
MCI-225 was dissolved in 5% methylcellulose in water at 3.0, 10.0 or 30 mg/ml Animals were dosed by volume of injection=body weight in kg.
Female cats (2.5-3.5 kg; Harlan) had their food removed the night before the study. The following morning, the cats were anesthetized with isoflurane and prepped for surgery using aseptic technique. Polyethylene catheters were surgically placed to permit the measurement of bladder pressure, urethral pressure, arterial pressure, respiratory rate as well as for the delivery of drugs. Fine wire electrodes were implanted alongside the external urethral anal sphincter. Following surgery, the cats were slowly switched from the gas anesthetic isoflurane (2-3.5%) to alpha-chloralose (50-100 mg/kg). During control cystometry, saline was slowly infused into the bladder (0.5-1.0 ml/min) for 1 hour. The control cystometry was followed by 0.5% acetic acid in saline for the duration of the experiment. After assessing the cystometric variables under these baseline conditions, the effects of MCI-225 on bladder capacity were determined via a 3 point dose response protocol.
Data was analyzed using a non-parametric One-Way ANOVA (Friedman Test) with the post-hoc Dunn's multiple comparison t test. P<0.05 was considered significant.

| Structure (SMILES) | blood levels of gabapentin after XP13512 ([1]; broad range of oral doses) | absorption from the large intestine [1] | Ki [2] [µM] | anticholinergic activity [3] | inhibition of MAO-B activity [4] | IC50 [5] [µM] | inhibition of MAO-A activity [6] | bladder capacity (% normalized to AA/Veh 3) ([7]; rats n=8, intraduodenal, cumulative 3-30 mg/kg, p=0.0005 Friedman test) | bladder capacity vs AA/Veh 3 ([7]; 10 mg/kg, p<0.05 Dunn's test) | bladder capacity vs AA/Veh 3 ([7]; 30 mg/kg, p<0.001 Dunn's test) | bladder capacity following acetic acid irritation ([8]; cats n=6, 3 point dose response 3, 10, 30 mg/kg, P<0.0103) | bladder capacity, individual dose significance ([8]; cats, 30 mg/kg, P<0.05) |
| --- | --- | --- | --- | --- | --- | --- | --- | --- | --- | --- | --- | --- |
| CC(OC(=O)NCC1(CC(=O)O)CCCCC1)OC(=O)C(C)C (stereo not drawn) [XP13512] | dose proportional blood levels of gabapentin | absorbed efficiently from the large intestine | – | – | – | – | – | – | – | – | – | – |
| Cc1cc2c(-c3ccccc3F)nc(N3CCNCC3)nc2s1 [MCI-225, 4-(2-fluorophenyl)-6-methyl-2-(1-piperazinyl)thieno[2,3-d]pyrimidine] | – | – | < 0.1 | substantially no anticholinergic activity | did not inhibit | > 1 | did not inhibit | dose-dependent increase in bladder capacity | significantly higher than AA/Veh 3 | significantly higher than AA/Veh 3 | significant dose-dependent increase in bladder capacity | individual dose significance attained |
